What was measured:
[1] = Growth performance of finishing pigs fed increasing levels of astaxanthin (d 0 to 26); type: in vivo, pigs (barrows, PIC TR4×C22 cross); details: for ADFI / ADG / F/G / Final Wt.: d 0 to 26
Procedure: Procedures used in the experiment were approved by the Kansas State University Animal Care and Use Committee. The project was conducted at the KSU Swine Teaching and Research Farm. Pigs were housed in an environmentally regulated finishing building with pens over a totally slatted floor that provided approximately 8 ft^2 per pig. Each pen was equipped with a dry self-feeder and one nipple waterer, thereby providing ad libitum access to feed and water. The facility was a mechanically ventilated room with a pull-plug manure storage pit.
(§1) Forty-eight barrows (PIC, TR4×C22 cross) averaging 215 lb were used in the study. Pigs were blocked by weight and randomly allotted to one of the four dietary treatments with two pigs per pen and six pens per treatment. Experimental diets were provided in meal form and astaxanthin (0, 5, 10 and 20 ppm) was added to the control diet at the expense of corn starch to achieve the dietary treatments (Table 1). In Table 1, CP is crude protein; P is […]; ME is metabolizable energy; and TID is true ileal digestible. Pigs and feeders were weighed on day (d) 0, 7, 14, 21 and 26 to determine the growth performance criteria of average daily gain (ADG), average daily food intake (ADFI), and feed conversion (F/G).
(§2) Data were analyzed as a randomized complete block design using the PROC MIXED procedure of SAS with pen as the experimental unit. Linear and quadratic polynomial contrasts were used to determine the effect of increasing astaxanthin.
(§3) The source of natural astaxanthin used in the example was Phaffia rhodozyma which is commercially available under the trade name Aquasta® containing 10,000 ppm astaxanthin, by weight.

[2] = cited from earlier work
[3] = Carcass characteristics and loin eye color of finishing pigs fed astaxanthin; type: in vivo, pigs (barrows, PIC TR4×C22 cross); details: for Loin eye area / Loin eye color CIE L* / Loin eye color CIE a* / Loin eye color CIE b*: 10th rib; for Loin eye area / Backfat-1st rib / Backfat-10th rib / Backfat-Last Lumbar / Backfat-Last rib: 24-h postmortem; for Loin eye color CIE L* / Loin eye color CIE a* / Loin eye color CIE b*: 30 minutes bloom time
Procedure: as §1
On d 27, one pig per pen was transported to the KSU meats lab for humane slaughter and collection of carcass data. Hot carcass weight was collected immediately after evisceration. First-rib, tenth-rib, last-rib, and last-lumbar backfat depth, as well as loin eye area at the 10th-rib, were collected from the right half of each carcass 24-h postmortem. Additionally, each carcass was evaluated for loin muscle color at the 10th-rib with a Hunter MiniScan instrument to measure CIE L*, a* and b*, known color parameters relating to brightness, red-to-green coloration and yellow-to-blue coloration, as known in the art. That was performed after 30 minutes of bloom time, the time to oxygenate myoglobin thereby obtaining maximal pink or red coloration, for each loin muscle surface.
as §2, §3

[4] = 5 ppm astaxanthin in the feed; cited from earlier work
[5] = astaxanthin 5, 10, 20 ppm in diet
[6] = 5 ppm astaxanthin in diet for 26 d
[7] = 5 ppm astaxanthin in diet for 26 d before slaughter
[8] = 10 ppm astaxanthin in diet for 26 d
[9] = 10 ppm astaxanthin in diet for 26 d before slaughter
[10] = 20 ppm astaxanthin in diet for 26 d
[11] = 20 ppm astaxanthin in diet for 26 d before slaughter

CC1=C(/C=C/C(C)=C/C=C/C(C)=C/C=C/C=C(C)/C=C/C=C(C)/C=C/C2=C(C)C(=O)C(O)CC2(C)C)C(C)(C)CC(O)C1=O (stereo not drawn) [Astaxanthin, 3,3′-dihydroxy-β,β-carotene-4,4′dione]
ADFI ([1]; 5 ppm astaxanthin in diet): 6.76 lb | ADG ([1]; 5 ppm astaxanthin in diet): 2.23 lb | F/G ([1]; 5 ppm astaxanthin in diet): 3.05 | Final Wt. ([1]; 5 ppm astaxanthin in diet): 273 lb | ADFI ([1]; 10 ppm astaxanthin in diet): 6.24 lb | ADG ([1]; 10 ppm astaxanthin in diet): 2.03 lb | F/G ([1]; 10 ppm astaxanthin in diet): 3.08 | Final Wt. ([1]; 10 ppm astaxanthin in diet): 268 lb | ADFI ([1]; 20 ppm astaxanthin in diet): 6.20 lb | ADG ([1]; 20 ppm astaxanthin in diet): 1.99 lb | F/G ([1]; 20 ppm astaxanthin in diet): 3.16 | Final Wt. ([1]; 20 ppm astaxanthin in diet): 267 lb | ADG versus control pigs [1, 5]: not significantly different | F/G versus control pigs [1, 5]: not significantly different | average daily feed intake, trend ([1]; with increasing level of astaxanthin (0, 5, 10, 20 ppm)): tended to decrease | effect on production performance ([2]; 0, 1.5 and 3.0 ppm astaxanthin in the diet): no significant effect | effect on dressing percentage, backfat thickness and loin muscle area ([2]; with increasing dietary astaxanthin level (0, 1.5, 3.0 ppm)): linear effect | percent fat-free lean (PFFL), comparison of doses ([3]; 5 or 10 ppm astaxanthin versus 0 or 20 ppm, p<0.10): greatest percent fat-free lean | Loin eye area [3, 6]: 7.72 sq. in. | Loin eye color CIE L* [3, 6]: 55.3 | Loin eye color CIE a* [3, 6]: 10.1 | Loin eye color CIE b* [3, 6]: 14.8 | Backfat-1st rib [3, 6]: 1.40 in. | Backfat-10th rib [3, 6]: 0.65 in. | Backfat-Last Lumbar [3, 6]: 0.60 in. | Backfat-Last rib [3, 6]: 0.65 in. | Fat-Free Lean [3, 7]: 55.6% | Hot Carcass Wt. [3, 7]: 192 lb | Live Wt. [3, 7]: 273 lb | Standardized Fat-Free Lean [3, 7]: 107 lb | Yield [3, 7]: 70.6% | Loin eye area [3, 8]: 7.58 sq. in. | Loin eye color CIE L* [3, 8]: 58.9 | Loin eye color CIE a* [3, 8]: 8.2 | Loin eye color CIE b* [3, 8]: 14.4 | Backfat-1st rib [3, 8]: 1.33 in. | Backfat-10th rib [3, 8]: 0.65 in. | Backfat-Last Lumbar [3, 8]: 0.56 in. | Backfat-Last rib [3, 8]: 0.67 in. | Fat-Free Lean [3, 9]: 55.5% | Hot Carcass Wt. [3, 9]: 191 lb | Live Wt. [3, 9]: 271 lb | Standardized Fat-Free Lean [3, 9]: 106 lb | Yield [3, 9]: 70.6% | Loin eye area [3, 10]: 7.28 sq. in. | Loin eye color CIE L* [3, 10]: 56.2 | Loin eye color CIE a* [3, 10]: 10.3 | Loin eye color CIE b* [3, 10]: 15.1 | Backfat-1st rib [3, 10]: 1.41 in. | Backfat-10th rib [3, 10]: 0.70 in. | Backfat-Last Lumbar [3, 10]: 0.57 in. | Backfat-Last rib [3, 10]: 0.64 in. | Fat-Free Lean [3, 11]: 54.5% | Hot Carcass Wt. [3, 11]: 189 lb | Live Wt. [3, 11]: 270 lb | Standardized Fat-Free Lean [3, 11]: 103 lb | Yield [3, 11]: 70.3% | carcass traits and meat quality, benefit over lower doses ([3]; 20 ppm astaxanthin in the diet, optimum 5 to 10 ppm): no additional benefit | backfat depth measured at the first rib, tenth rib and last rib, versus control ([3]; pigs fed astaxanthin, p<0.10): less backfat depth | performance of sows (stillborn in the litter, parity) [4]: improved performance of sows

Source: US20120253078A1, “Agent for Improving Carcass Performance in Finishing Hogs” (IGENE BIOTECHNOLOGY, INC., priority 2007, published 2012)
